Drawing on US20240208969A1, “SUBSTITUTED FUSED BICYCLIC COMPOUNDS AS PARP INHIBITORS AND THE USE THEREOF” (IMPACT THERAPEUTICS (SHANGHAI), INC., priority 2021, published 2024), this text covers IC50 for seven compounds.

Experiment [1] relates to MDA-MB-436 cells. Nature of the experiment: Inhibition of proliferation of human breast cancer MDA-MB-436 cell line (CCK-8, 7 days). As to conditions: Homo sapiens, 168 h, proliferation of MDA-MB-436, 7 days. Format: cell-based. The gist of the method:
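Cells seeded at 3000/well were treated next day with 8 serial doses (DMSO control) for 7 days at 37° C., 5% CO2, with compound medium changed on day four. CCK-8 was added for 4 hours and OD read as 450 nm minus 650 nm. IC50 came from a sigmoidal fit of survival relative to DMSO.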

The target in experiment [2] is PARP1 (Homo sapiens, UniProt P09874). Nature of the experiment: PARP1 chemiluminescent assay. It counts as biochemical. As to conditions: recombinant PARP1 enzyme activity, chemiluminescence. The protocol: (§1) Mix the solution of recombinant poly ADP ribotransferase 1 and 2 (PARP1 and PARP2) (40 ng enzyme/well) and the compounds to be tested, respectively. And then added to a 96-well plate coated with […] mixture, incubated at room temperature for 1 h. Then add 50 μL 0.3 ng/mL Streptavidin-HRP to each well. The plates were incubated for 30 minutes at room temperature. Finally, the plates were treated with streptavidin-HRP followed by addition of the ELISA ECL substrate to produce chemiluminescence that can then be measured using a chemiluminescence reader. The inhibition rate of the compound to PARP1/2 enzyme activity was calculated according to the following formula. [formula] IC50 value is obtained by fitting the s-shaped dose response curve equation by using XL Fit software. The curve equation is Y=100/(1+10^(log C−log IC50)), C is the compound concentration. Table 1 summarizes the inhibitory effects of compounds on PARP1 and PARP2 enzyme activity (IC50), wherein +++++ indicates IC50≤1 nM; ++++ indicates 1<IC50≤10 nM; +++ indicates 10 nM<IC50≤100 nM: ++ indicates 100 nM<IC50≤1 μM; + indicates IC50>1 μM.

Experiment [3] has as its target PARP2 (Homo sapiens, UniProt Q9UGN5). Nature of the experiment: PARP2 chemiluminescent assay. The conditions noted are these: recombinant PARP2 enzyme activity, chemiluminescence. It counts as biochemical. The protocol:
as §1

Sequence of PARP1 (P09874 whole entry): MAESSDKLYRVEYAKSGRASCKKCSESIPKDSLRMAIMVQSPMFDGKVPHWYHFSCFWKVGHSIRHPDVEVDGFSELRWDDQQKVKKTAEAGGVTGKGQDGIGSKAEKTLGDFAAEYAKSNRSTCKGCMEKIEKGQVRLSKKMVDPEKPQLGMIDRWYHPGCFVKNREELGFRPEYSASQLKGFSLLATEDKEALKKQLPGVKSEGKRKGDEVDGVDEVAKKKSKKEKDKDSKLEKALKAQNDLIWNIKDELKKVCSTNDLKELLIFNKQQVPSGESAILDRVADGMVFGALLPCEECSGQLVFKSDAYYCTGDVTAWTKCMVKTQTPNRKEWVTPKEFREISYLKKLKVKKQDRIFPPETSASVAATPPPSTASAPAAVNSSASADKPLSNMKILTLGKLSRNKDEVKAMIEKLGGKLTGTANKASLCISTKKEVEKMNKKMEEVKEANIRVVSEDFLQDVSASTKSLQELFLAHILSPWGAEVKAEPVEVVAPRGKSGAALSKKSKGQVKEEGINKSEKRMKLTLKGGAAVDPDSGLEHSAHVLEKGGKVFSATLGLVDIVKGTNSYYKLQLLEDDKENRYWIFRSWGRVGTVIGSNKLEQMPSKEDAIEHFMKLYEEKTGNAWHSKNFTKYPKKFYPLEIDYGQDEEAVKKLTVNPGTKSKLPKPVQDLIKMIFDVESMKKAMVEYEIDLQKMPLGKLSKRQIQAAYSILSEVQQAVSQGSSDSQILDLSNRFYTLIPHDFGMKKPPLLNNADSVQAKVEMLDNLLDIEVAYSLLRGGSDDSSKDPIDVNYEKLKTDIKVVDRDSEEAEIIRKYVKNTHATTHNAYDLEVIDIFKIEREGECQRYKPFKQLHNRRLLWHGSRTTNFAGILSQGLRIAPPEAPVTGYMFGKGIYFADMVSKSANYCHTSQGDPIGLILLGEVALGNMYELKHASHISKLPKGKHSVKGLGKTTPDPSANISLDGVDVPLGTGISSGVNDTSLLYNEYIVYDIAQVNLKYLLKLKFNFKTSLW
Sequence of PARP2 (Q9UGN5 whole entry, species assumed): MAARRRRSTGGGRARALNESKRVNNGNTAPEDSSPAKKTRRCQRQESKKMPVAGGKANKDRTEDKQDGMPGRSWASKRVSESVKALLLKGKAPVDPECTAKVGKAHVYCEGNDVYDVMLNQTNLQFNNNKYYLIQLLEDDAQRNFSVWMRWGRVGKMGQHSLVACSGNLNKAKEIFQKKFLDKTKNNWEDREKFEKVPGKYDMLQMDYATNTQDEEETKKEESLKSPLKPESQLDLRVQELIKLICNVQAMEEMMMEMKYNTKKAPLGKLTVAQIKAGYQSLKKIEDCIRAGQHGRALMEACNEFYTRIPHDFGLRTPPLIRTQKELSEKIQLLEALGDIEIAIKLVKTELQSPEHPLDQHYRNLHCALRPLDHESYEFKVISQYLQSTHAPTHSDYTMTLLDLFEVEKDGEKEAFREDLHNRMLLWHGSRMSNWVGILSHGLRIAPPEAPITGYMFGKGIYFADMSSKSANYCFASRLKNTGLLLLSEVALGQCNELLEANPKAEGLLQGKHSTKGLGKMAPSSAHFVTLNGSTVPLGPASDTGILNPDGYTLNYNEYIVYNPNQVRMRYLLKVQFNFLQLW

For orientation: IC50 means the midpoint of a concentration-inhibition curve. `CNC(=O)c1ccc(NC(=O)c2cccc(-c3ccc4c(=O)n(C(C)C)c(=O)[nH]c4c3)c2)cn1` [Example 42, 5-(3-(3-isopropyl-2,4 dioxo-1,2,3,4-tetrahydroquinazolin-7-yl)benzamido)-N-methylpicolinamide]: the values for the IC50 in experiment [1], in experiment [2] and in experiment [3] were more than 1000 nM, 1 to 10 nM and more than 1000 nM, respectively.

As to `CCN1Cc2c(F)cc(CN3CCN(c4ccc(C(=O)NC)nc4C)CC3)cc2NC1=O` [Example 119, 5-(4-((3-ethyl-5-fluoro-2-oxo-1,2,3,4-tetrahydroquinazolin-7-yl)methyl)piperazin-1-yl)-N,6-dimethylpicolinamide], the figures for the IC50 in experiment [1], in experiment [2] and in experiment [3] were 1 to 10 nM, 1 to 10 nM and more than 1000 nM, respectively.

As for `CCNC(=O)c1ccc(N2CCN(Cc3ccc4c(=O)n(CC)c(=O)[nH]c4c3)CC2)c(Cl)n1` [Example 83, 6-chloro-N-ethyl-5-(4-((3-ethyl-2,4-dioxo-1,2,3,4-tetrahydroquinazolin-7-yl)methyl)piperazin-1-yl)picolinamide], the half-maximal inhibitory concentration (IC50) lay in the range of 10 to 100 nM in experiment [1], 1 to 10 nM in experiment [2] and 100 to 1000 nM in experiment [3].

Regarding `CNC(=O)c1ccc(NC(=O)c2cccc(-c3ccc4c(=O)n(C)c(=O)[nH]c4c3)c2)cn1` [Example 40, 5-(3-(3-methyl-2,4-dioxo-1,2,3,4-tetrahydroquinazolin-7-yl)benzamido)N-methylpicolinamide], the values for the half-inhibitory concentration (IC50) in experiment [1], in experiment [2] and in experiment [3] were more than 1000 nM, 1 to 10 nM and more than 1000 nM, respectively.

Regarding `CCn1c(=O)[nH]c2cc(CN3CCN(c4ccc(C(=O)NC)nc4Cl)CC3)c(F)cc2c1=O` [Example 61, 6-chloro-5-(4-((3-ethyl-6-fluoro-2,4-dioxo-1,2,3,4-tetrahydroquinazolin-7-yl)methyl)piperazin-1-yl)-N-methylpicolinamide], the IC50 was 10 to 100 nM in experiment [1], 1 to 10 nM in experiment [2] and more than 1000 nM in experiment [3].

Take `CCNC(=O)c1ccc(N2CCN(Cc3ccc4c(=O)n(CC)c(=O)[nH]c4c3)CC2)c(C)n1` [Example 84, N-ethyl-5-(4-((3-ethyl-2,4-dioxo-1,2,3,4-tetrahydroquinazolin-7-yl)methyl)piperazin-1-yl)-6-methylpicolinamide]: the IC50 in experiment [1] was 10 to 100 nM; in experiment [2], 1 to 10 nM; in experiment [3], more than 1000 nM.

As for `CCn1c(=O)[nH]c2cc(CN3CCN(c4ccc(C(=O)NC5CC5)nc4C)CC3)ccc2c1=O` [Example 78, N-cyclopropyl-5-(4-((3-ethyl-2,4-dioxo-1,2,3,4-tetrahydroquinazolin-7-yl)methyl)piperazin-1-yl)-6-methylpicolinamide], the half-inhibitory concentration (IC50) was 10 to 100 nM in experiment [1], 1 to 10 nM in experiment [2] and more than 1000 nM in experiment [3].
